Source: PubChem BioAssay (NCI)
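Step 1: Grow cells in 96-well plates. Step 2: Expose to compound for 48 hours at 5 concentrations. Step 3: Interpolate endpoints linearly; if unreached, use highest concentration. GI50 marks 50% less growth. Definition used: TGI = concentration required for complete inhibition of growth.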

Experiments:
Assay in all cases: NCI anticancer screen, dose series, 48 h; in the data active = GI50 below about 0.43 µM; inactive = the rest
SF-539 CNS = test system: SF-539 CNS
UACC-62 melanoma = test system: UACC-62 melanoma
HOP-92 NSCLC = test system: HOP-92 NSCLC
BT-549 breast = test system: BT-549 breast
MOLT-4 leukemia = test system: MOLT-4 leukemia
SR leukemia = test system: SR leukemia
SNB-75 CNS = test system: SNB-75 CNS
SNB-19 CNS = test system: SNB-19 CNS
SW-620 colon = test system: SW-620 colon
HL-60(TB) leukemia = test system: HL-60(TB) leukemia
786-0 renal = test system: 786-0 renal
K-562 leukemia = test system: K-562 leukemia
SK-MEL-5 melanoma = test system: SK-MEL-5 melanoma
SK-MEL-2 melanoma = test system: SK-MEL-2 melanoma
HOP-62 NSCLC = test system: HOP-62 NSCLC
RXF 393 renal = test system: RXF 393 renal
UO-31 renal = test system: UO-31 renal

COc1ccc(-c2nc(C(Cl)Cl)nc3cc(-c4ccccc4)nn23)cc1
5.78 µM: TGI (BT-549 breast)
inactive: GI50 (SF-539 CNS) 72.8 µM | GI50 (UACC-62 melanoma) > 100 µM | GI50 (HOP-92 NSCLC) 3.09 µM | GI50 (BT-549 breast) 1.92 µM | GI50 (MOLT-4 leukemia) 2.75 µM | GI50 (SR leukemia) 1.87 µM | GI50 (SNB-75 CNS) > 100 µM | GI50 (SNB-19 CNS) 2.81 µM | GI50 (SW-620 colon) 1.96 µM | GI50 (HL-60(TB) leukemia) 1.6 µM | GI50 (786-0 renal) 10.7 µM | GI50 (K-562 leukemia) 3.06 µM | GI50 (SK-MEL-5 melanoma) > 100 µM | GI50 (SK-MEL-2 melanoma) > 100 µM | GI50 (HOP-62 NSCLC) 2.66 µM | GI50 (RXF 393 renal) 1.63 µM | GI50 (UO-31 renal) > 100 µM
> 100 µM: TGI (SF-539 CNS) | TGI (UACC-62 melanoma) | TGI (HOP-92 NSCLC) | TGI (MOLT-4 leukemia) | TGI (SR leukemia) | TGI (SNB-75 CNS) | TGI (SNB-19 CNS) | TGI (SW-620 colon) | TGI (HL-60(TB) leukemia) | TGI (K-562 leukemia) | TGI (SK-MEL-5 melanoma) | TGI (SK-MEL-2 melanoma) | TGI (HOP-62 NSCLC) | TGI (UO-31 renal)
26.9 µM: TGI (786-0 renal)
3.14 µM: TGI (RXF 393 renal)
